# Paper PMC10123497 (RSC Advances, 2023)
# Like-named read-outs stand apart in the source and are kept apart here.
# What was measured:
# MDA-MB-231 = assay: MTT in vitro cytotoxicity assay; assay type: cell-based, human; settings: for Selectivity index (SI): (IC50 of WI-38)/(IC50 of MDA-MB-231)
# [1] = MTT cytotoxicity on non-tumorigenic normal cell line; assay type: cell-based; settings: human, WI-38 cells (non-tumorigenic normal lung fibroblasts)
# MCF-7 cells [2] = assay: Cell cycle analysis by flow cytometry; assay type: cell-based, human; settings: MCF-7 treated at IC50 = 3.82 μM
# MCF-7 cells [3] = assay: Annexin-V/propidium iodide apoptosis assay; assay type: cell-based, human
# p53 = assay: qRT-PCR gene expression in MCF-7; assay type: cell-based, human; settings: MCF-7, vs untreated control = 1
# EGFR^Wt = EGFR^Wt (Homo sapiens, UniProt P00533); assay: EGFR Kinase Assay Kit; assay type: biochemical
# EGFR^Wt, sequence (P00533 25-1210): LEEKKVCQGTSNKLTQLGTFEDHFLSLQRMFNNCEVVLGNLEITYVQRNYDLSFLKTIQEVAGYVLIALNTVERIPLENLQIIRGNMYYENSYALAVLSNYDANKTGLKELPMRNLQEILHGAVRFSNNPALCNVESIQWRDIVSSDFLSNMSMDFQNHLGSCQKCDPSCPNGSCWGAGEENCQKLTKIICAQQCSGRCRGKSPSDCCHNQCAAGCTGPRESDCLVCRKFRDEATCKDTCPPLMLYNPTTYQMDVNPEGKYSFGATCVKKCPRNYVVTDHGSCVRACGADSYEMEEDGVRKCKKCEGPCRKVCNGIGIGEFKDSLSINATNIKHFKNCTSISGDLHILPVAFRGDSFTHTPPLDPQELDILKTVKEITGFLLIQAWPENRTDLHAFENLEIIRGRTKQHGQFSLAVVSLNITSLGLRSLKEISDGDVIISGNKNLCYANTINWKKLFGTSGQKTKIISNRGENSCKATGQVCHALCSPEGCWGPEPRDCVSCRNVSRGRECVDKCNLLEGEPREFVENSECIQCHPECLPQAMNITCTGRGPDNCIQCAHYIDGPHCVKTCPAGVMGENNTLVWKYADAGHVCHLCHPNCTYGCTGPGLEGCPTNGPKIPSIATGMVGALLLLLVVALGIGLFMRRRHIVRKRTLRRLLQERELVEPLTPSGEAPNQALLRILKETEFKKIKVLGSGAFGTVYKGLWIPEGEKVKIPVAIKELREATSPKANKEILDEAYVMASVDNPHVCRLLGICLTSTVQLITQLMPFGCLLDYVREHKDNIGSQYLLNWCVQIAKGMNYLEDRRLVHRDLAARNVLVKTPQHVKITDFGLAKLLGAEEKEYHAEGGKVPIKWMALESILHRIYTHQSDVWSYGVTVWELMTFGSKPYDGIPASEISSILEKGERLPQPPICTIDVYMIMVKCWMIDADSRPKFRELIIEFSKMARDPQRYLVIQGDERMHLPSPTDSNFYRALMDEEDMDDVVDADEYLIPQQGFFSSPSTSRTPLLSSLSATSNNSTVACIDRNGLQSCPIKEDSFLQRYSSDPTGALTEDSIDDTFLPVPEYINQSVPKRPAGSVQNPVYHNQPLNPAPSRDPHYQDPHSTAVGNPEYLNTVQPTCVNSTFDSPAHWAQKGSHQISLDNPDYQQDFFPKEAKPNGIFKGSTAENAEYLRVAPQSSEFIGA
# EGFR^(L858R) = EGFR^(L858R) (Homo sapiens, UniProt P00533, L858R); assay: EGFR; assay type: biochemical
# EGFR^(L858R), sequence (P00533 25-1210 L858R): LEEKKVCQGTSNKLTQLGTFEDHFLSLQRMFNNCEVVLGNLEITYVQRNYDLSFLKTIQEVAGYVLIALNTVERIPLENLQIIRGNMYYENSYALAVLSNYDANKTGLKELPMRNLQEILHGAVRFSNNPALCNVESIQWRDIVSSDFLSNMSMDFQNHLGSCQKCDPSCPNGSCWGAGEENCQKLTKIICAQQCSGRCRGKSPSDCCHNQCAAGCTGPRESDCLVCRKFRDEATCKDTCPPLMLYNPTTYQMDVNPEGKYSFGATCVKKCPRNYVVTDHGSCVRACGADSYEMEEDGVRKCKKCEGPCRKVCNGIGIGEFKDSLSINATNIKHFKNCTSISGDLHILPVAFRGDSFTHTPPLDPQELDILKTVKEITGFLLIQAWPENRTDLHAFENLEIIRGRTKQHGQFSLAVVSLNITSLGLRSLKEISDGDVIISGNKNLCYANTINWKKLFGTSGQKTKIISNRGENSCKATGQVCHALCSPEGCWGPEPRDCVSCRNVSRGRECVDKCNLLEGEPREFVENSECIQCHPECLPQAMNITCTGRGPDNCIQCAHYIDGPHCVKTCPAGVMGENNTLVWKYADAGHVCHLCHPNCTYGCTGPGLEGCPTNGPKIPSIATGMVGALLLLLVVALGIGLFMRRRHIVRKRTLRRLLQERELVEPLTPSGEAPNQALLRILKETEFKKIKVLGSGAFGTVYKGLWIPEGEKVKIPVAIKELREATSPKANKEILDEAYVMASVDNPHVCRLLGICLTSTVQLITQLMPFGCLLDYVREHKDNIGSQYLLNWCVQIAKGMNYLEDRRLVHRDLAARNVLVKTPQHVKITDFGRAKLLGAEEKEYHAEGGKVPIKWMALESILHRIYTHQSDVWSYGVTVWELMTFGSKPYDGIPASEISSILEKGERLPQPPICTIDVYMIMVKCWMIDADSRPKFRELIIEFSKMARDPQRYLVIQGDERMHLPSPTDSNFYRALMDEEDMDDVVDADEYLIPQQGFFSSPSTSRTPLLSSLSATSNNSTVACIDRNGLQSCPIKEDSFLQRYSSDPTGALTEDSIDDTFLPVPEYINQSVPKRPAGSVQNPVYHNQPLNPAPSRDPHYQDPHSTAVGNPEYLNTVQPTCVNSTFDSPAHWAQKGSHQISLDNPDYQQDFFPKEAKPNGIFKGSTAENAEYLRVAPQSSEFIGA
# VEGFR2 = VEGFR2 (Homo sapiens, UniProt P35968); assay: biochemical
# VEGFR2, sequence (P35968 20-1356): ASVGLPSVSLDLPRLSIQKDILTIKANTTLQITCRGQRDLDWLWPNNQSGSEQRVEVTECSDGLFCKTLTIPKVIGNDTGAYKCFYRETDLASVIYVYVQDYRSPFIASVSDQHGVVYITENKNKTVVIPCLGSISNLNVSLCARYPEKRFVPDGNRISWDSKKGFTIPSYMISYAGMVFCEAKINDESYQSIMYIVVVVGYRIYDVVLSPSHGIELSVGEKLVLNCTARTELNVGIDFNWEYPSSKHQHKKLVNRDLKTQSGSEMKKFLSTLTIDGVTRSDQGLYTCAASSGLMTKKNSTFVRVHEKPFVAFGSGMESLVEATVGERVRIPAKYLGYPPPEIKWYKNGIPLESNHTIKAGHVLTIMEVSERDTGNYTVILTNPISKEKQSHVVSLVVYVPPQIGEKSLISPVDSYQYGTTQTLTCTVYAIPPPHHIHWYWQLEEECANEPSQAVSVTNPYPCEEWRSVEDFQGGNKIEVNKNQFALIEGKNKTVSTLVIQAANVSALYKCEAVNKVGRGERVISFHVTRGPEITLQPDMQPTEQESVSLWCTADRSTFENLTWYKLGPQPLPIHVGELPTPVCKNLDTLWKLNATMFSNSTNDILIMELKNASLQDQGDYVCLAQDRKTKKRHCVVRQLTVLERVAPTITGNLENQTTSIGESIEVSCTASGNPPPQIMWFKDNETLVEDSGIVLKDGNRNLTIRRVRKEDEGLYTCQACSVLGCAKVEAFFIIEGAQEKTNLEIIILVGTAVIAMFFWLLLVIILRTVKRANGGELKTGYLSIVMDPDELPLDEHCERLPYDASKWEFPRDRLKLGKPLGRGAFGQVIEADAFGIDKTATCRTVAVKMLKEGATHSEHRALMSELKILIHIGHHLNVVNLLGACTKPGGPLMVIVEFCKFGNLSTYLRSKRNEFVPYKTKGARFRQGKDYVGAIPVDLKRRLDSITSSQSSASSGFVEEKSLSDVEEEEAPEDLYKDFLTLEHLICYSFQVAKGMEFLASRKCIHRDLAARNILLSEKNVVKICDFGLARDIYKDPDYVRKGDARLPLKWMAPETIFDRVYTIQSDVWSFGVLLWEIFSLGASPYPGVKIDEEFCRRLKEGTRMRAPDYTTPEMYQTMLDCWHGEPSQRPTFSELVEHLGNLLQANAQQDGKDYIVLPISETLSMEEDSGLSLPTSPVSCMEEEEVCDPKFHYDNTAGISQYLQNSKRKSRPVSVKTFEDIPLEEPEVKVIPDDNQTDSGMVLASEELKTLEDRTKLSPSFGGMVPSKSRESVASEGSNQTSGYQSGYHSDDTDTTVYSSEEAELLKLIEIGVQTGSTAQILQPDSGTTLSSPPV
# HepG2 = assay: MTT in vitro cytotoxicity assay; settings: for Selectivity index (SI): (IC50 of WI-38)/(IC50 of HepG2); for IC50: Homo sapiens, HepG2, 24 h, read-out: In vitro cytotoxicity activity IC50 ± SD
# HCT-116 = assay: MTT in vitro cytotoxicity assay; settings: for Selectivity index (SI): (IC50 of WI-38)/(IC50 of HCT-116); for IC50: Homo sapiens, HCT-116, 24 h, read-out: In vitro cytotoxicity activity IC50 ± SD
# MCF-7 = assay: MTT in vitro cytotoxicity assay; settings: for Selectivity index (SI): (IC50 of WI-38)/(IC50 of MCF-7); for IC50: read-out: In vitro cytotoxicity activity IC50 ± SD
structure (smiles),measurement,setting,value
"O=C1CCCCC1=C1Sc2nc3ccc(S(=O)(=O)N4CCCC4)cc3nc2S1 [Compound 12, 2-(6-(Pyrrolidin-1-ylsulfonyl)-[1,3]dithiolo[4,5-b]quinoxalin-2-ylidene)cyclohexan-1-one]",Selectivity index (SI),MDA-MB-231,36.12
same,Fold increase of potency as compared with doxorubicin,MDA-MB-231; MDA-MB-231,1.41 fold
same,IC50 at 24 h,[1],81.6 ± 4.1 µM
same,Cell cycle distribution %G2/M,MCF-7 cells [2]; untreated control 12.55,7.32%
same,Cell cycle distribution %G0-G1,MCF-7 cells [2]; untreated control 57.66,48.16%
same,Increase in early apoptosis compared to the control,MCF-7 cells [3]; MCF-7,54.59 folds
same,Increase in late apoptosis compared to the control,MCF-7 cells [3]; MCF-7,79.33 folds
same,Apoptosis Late,"MCF-7 cells [3]; MCF-7, at IC50 for 24 h, control 0.15",11.9%
same,Apoptosis Early,"MCF-7 cells [3]; MCF-7, at IC50 for 24 h, control 0.44",24.02%
same,Necrosis,"MCF-7 cells [3]; MCF-7, at IC50 for 24 h, control 1.25",6.16%
same,Apoptosis Total,"MCF-7 cells [3]; MCF-7, at IC50 for 24 h, control 1.84",42.08%
same,RT-PCR results fold change p53 (pro-apoptotic),p53,4.97 fold
same,IC50,EGFR^Wt; Enzyme inhibitory activity IC50 EGFR^Wt,0.19 ± 0.009 µM
same,inhibition at 10 µM,EGFR^Wt; read-out: Inhibitory% EGFR^Wt,85.4%
same,IC50,EGFR^(L858R); Enzyme inhibitory activity IC50 EGFR^(L858R),0.121 ± 0.007 µM
same,inhibition at 10 µM,EGFR^(L858R); read-out: Inhibitory% EGFR^(L858R),87%
same,IC50,VEGFR2; Enzyme inhibitory activity IC50 VEGFR2,0.42 ± 0.021 µM
same,inhibition at 10 µM,VEGFR2; read-out: Inhibitory% VEGFR2,78.9%
same,Selectivity index (SI),HepG2,9.89
same,IC50,HepG2,8.25 ± 0.6 µM
same,Selectivity index (SI),HCT-116,10.26
same,IC50,HCT-116,7.95 ± 0.5 µM
same,Selectivity index (SI),MCF-7,21.37
same,IC50,"MCF-7; Homo sapiens, MCF7, 24 h",3.82 ± 0.2 µM
same,Fold increase of potency as compared with doxorubicin,MCF-7; MCF-7,1.09 fold
"COc1cccc2c1C(=O)c1c(O)c3c(c(O)c1C2=O)C[C@@](O)(C(=O)CO)C[C@@H]3O[C@H]1C[C@H](N)[C@H](O)[C@H](C)O1 [Doxorubicin, doxorubicin, reference compound]",IC50,HepG2,4.5 ± 0.2 µM
"N#CC(C#N)=C1Sc2nc3ccc(S(=O)(=O)N4CCCC4)cc3nc2S1 [Compound 10a, 2-(6-(Pyrrolidin-1-ylsulfonyl)-[1,3]dithiolo[4,5-b]quinoxalin-2-ylidene)malononitrile]",IC50,HepG2,89.7 ± 4.5 µM
same,IC50,HCT-116,93.8 ± 4.7 µM
"CCOC(=O)C(C(C)=O)=C1Sc2nc3ccc(S(=O)(=O)N4CCCC4)cc3nc2S1 [Compound 10f, Ethyl 3-oxo-2-(6-(pyrrolidin-1-ylsulfonyl)-[1,3]dithiolo[4,5-b]quinoxalin-2-ylidene)butanoate]",Selectivity index (SI),MDA-MB-231,4.41
same,IC50 at 24 h,[1],46.2 ± 2.4 µM
same,Selectivity index (SI),HepG2,1.76
same,IC50,HepG2,26.8 ± 1.9 µM
same,Selectivity index (SI),HCT-116,3.69
same,IC50,HCT-116,12.5 ± 1 µM
same,Selectivity index (SI),MCF-7,5.27
same,IC50,"MCF-7; MCF-7, MTT, 24 h",8.78 ± 0.6 µM
"CC1=NNC(=O)C1=C1Sc2nc3ccc(S(=O)(=O)N4CCCC4)cc3nc2S1 [Compound 14, 5-Methyl-4-(6-(pyrrolidin-1-ylsulfonyl)-[1,3]dithiolo[4,5-b]quinoxalin-2-ylidene)-2,4-dihydro-3H-pyrazol-3-one]",IC50,HepG2,69 ± 3.9 µM
same,IC50,HCT-116,71.2 ± 3.8 µM
"O=C1NC(=O)C(=C2Sc3nc4ccc(S(=O)(=O)N5CCCC5)cc4nc3S2)C(=O)N1 [Compound 18, 5-(6-(Pyrrolidin-1-ylsulfonyl)-[1,3]dithiolo[4,5-b]quinoxalin-2-ylidene)pyrimidine-2,4,6(1H,3H,5H)-trione]",IC50,HepG2,83.4 ± 4.3 µM
same,IC50,HCT-116,> 100 µM
same,IC50,"MCF-7; Homo sapiens, MCF7, 24 h",62.8 ± 3.4 µM
"CC1=NN(c2ccccc2)C(=O)C1=C1Sc2nc3ccc(S(=O)(=O)N4CCCC4)cc3nc2S1 [Compound 16, 5-Methyl-2-phenyl-4-(6-(pyrrolidin-1-ylsulfonyl)-[1,3]dithiolo[4,5-b]quinoxalin-2-ylidene)-2,4-dihydro-3H-pyrazol-3-one]",IC50,HepG2,> 100 µM
same,IC50,HCT-116,> 100 µM
"O=S(=O)(c1ccc2nc(Cl)c(Cl)nc2c1)N1CCCC1 [Compound 7, 2,3-Dichloro-6-(pyrrolidin-1-ylsulfonyl)quinoxaline]",IC50,HepG2,48.7 ± 2.8 µM
same,IC50,HCT-116,38.1 ± 2.2 µM
"CCOC(=O)C(C#N)=C1Sc2nc3ccc(S(=O)(=O)N4CCCC4)cc3nc2S1 [Compound 10b, Ethyl 2-cyano-2-(6-(pyrrolidin-1-ylsulfonyl)-[1,3]dithiolo[4,5-b]quinoxalin-2-ylidene)acetate]",IC50,HepG2,80.3 ± 4.1 µM
same,IC50,HCT-116,87.4 ± 4.2 µM
"N#CC(C(=O)NN=C1C(=O)Nc2ccccc21)=C1Sc2nc3ccc(S(=O)(=O)N4CCCC4)cc3nc2S1 [Compound 10e, 2-Cyano-N′-(2-oxoindolin-3-ylidene)-2-(6-(pyrrolidin-1-ylsulfonyl)-[1,3]dithiolo[4,5-b]quinoxalin-2-ylidene)acetohydrazide]",IC50,HepG2,41.9 ± 2.5 µM
same,IC50,HCT-116,22 ± 1.7 µM
"COc1ccc(C=NNC(=O)C(C#N)=C2Sc3nc4ccc(S(=O)(=O)N5CCCC5)cc4nc3S2)cc1 [Compound 10d, 2-Cyano-N′-(4-methoxybenzylidene)-2-(6-(pyrrolidin-1-ylsulfonyl)-[1,3]dithiolo[4,5-b]quinoxalin-2-ylidene)acetohydrazide]",IC50,HepG2,32.1 ± 2.2 µM
same,IC50,HCT-116,18.4 ± 1.4 µM
"N#CC(C(=O)Nc1cccc(C(F)(F)F)c1)=C1Sc2nc3ccc(S(=O)(=O)N4CCCC4)cc3nc2S1 [Compound 10c, 2-Cyano-2-(6-(pyrrolidin-1-ylsulfonyl)-[1,3]dithiolo[4,5-b]quinoxalin-2-ylidene)-N-(3-(trifluoromethyl)phenyl)acetamide]",Selectivity index (SI),MDA-MB-231,8.48
same,IC50 at 24 h,[1],65.1 ± 3.5 µM
same,Selectivity index (SI),HepG2,3.82
same,IC50,HepG2,17 ± 1.3 µM
same,Selectivity index (SI),HCT-116,7.01
same,IC50,HCT-116,9.26 ± 0.8 µM
same,Selectivity index (SI),MCF-7,10.61
same,IC50,"MCF-7; MCF-7, MTT, 24 h",6.13 ± 0.4 µM
